The series in a line: Renal excretion of vosaroxin and metabolites in urine, 24 h after first dose. In kind it is in vivo, human. Conditions: 18 and 27 mg/m^2 weekly, eight patients.

As for `CO[C@H]1CN(c2ccc3c(=O)c(C(=O)O)cn(-c4nccs4)c3n2)C[C@@H]1N` [N-desmethyl-vosaroxin], the “Average renal excretion of the total dose infused” value (24 h after first dose) came to 0.99%. Moreover, the Detection in urine entry (first dose) is on record as “the only metabolite detected in urine”. Also, the “Ratio of N-desmethyl-vosaroxin to vosaroxin excretion in urine” value (first dose, coefficient of variation 40%) was 0.43.

These data come from paper PMC4576993 (Leukemia, 2011).
